Results as given in patent US20220192955A1, “AZOXYSTROBIN EFFICACY IN SCALP HEALTH” (The Procter & Gamble Company, priority 2020, published 2022).
Values after ≈ are worked out from the molar mass of the structure shown.

System: Malassezia furfur (CBS 7982)
Assay: In vitro evaluation of antifungal potency (MIC)
Type: cell-based
Settings: for MIC value, Malassezia furfur / MIC: M. furfur CBS 7982, mDixon medium, 31° C., approximately 72 hours, absorbance at 600 nm; for MIC: Malassezia furfur, CBS7982
Procedure: Malassezia furfur (CBS 7982) is grown for approximately 24 hours in a 250 ml vent cap polycarbonate Erlenmeyer flask containing approximately 100 ml of mDixon medium and 5 ml of a fully grown M. furfur culture prepared using the same conditions as described. The cells are diluted by mixing 2.5 ml of the 24 hour-old culture per 50 ml of mDixon medium. A Versette robot (ThermoFisher Scientific) is used to transfer 292.5 μl of the dilute cells into each well of a Beckman 267007 polypropylene round bottom deep well plate. All compounds are sourced from Sigma Aldrich (St. Louis, Mo.) and prepared as 10 mg/ml in DMSO. A semipermeable aeraseal membrane is applied to the plate which is then be covered with water-soaked cotton batting. The samples are be shaken at 31° C. on a Heidolph Titramax 100 shaker at 1500 rpm for approximately 72 hours. The plates are shaken at 1250 rpm on an Eppendorf MixMate shaker to disperse the cells before transferring 200 μl to a Corning 3596 polystyrene plate. The samples are shaken again at 950 rpm on a MixMate shaker before the absorbance at 600 nm is read using a Molecular Devices SpectraMax plate reader.

| Molecule | MIC value, Malassezia furfur [ppm] | times less potent than azoxystrobin (MIC) (Malassezia furfur MIC ratio) [times] | MIC [µg/mL] |
| --- | --- | --- | --- |
| CNC(=O)/C(=N/OC)c1ccccc1CO/N=C(C)/C(=N/OC)C(/C)=N/OC [Orysastrobin, orysastrobin] | 31.25 | 64 | – |
| CO/N=C(/C(=O)OC)c1ccccc1COc1ccccc1C [Kresoxim-methyl, kresoxim methyl] | – | – | 15.6 (≈ 49.9 µM) |
| CNC(=O)/C(=N/OC)c1ccccc1COc1cc(C)ccc1C [Dimoxystrobin, dimoxystrobin] | 7.81 | – | – |
| zinc pyrithione | 3.13 | – | – |
| CO/N=C(/C1=NOCCO1)c1ccccc1Oc1ncnc(Oc2ccccc2Cl)c1F [Fluoxastrobin, fluoxastrobin] | – | – | 3.91 (≈ 8.52 µM) |
| CON=C(C(=O)OC)c1ccccc1CON=C(C)c1cccc(C(F)(F)F)c1 [Trifloxystrobin, trifloxystrobin] | – | – | 15.6 (≈ 38.3 µM) |
| COC(=O)N(OC)c1ccccc1COc1ccn(-c2ccc(Cl)cc2)n1 [Pyraclastrobin, pyraclostrobin] | – | – | 1.95 (≈ 5.03 µM) |
